Consider 3 molecules from patent US4434788A, “Enhancer of anti-tumor effect” (Yamasa Shoyu Kabushiki Kaisha, priority 1980, dated 1984).

Data set [1] relates to potentially lethal damage repair. Kind of data set: PLDR-inhibiting / radiosensitizing activity (general statements).
Data set [2] in a line: LD50 (i.p.) of 3'-dAdo. The following applies: in vivo, ip.
Data set [3] concerns EMT-6 tumors. Nature of the data set: Radiosensitizing effect on EMT-6 tumor in mouse, cure percentage and TCD50. The following applies: 100 mg/kg i.p. after irradiation; for Cure number/Number treated / Cure percentage: >90 days. The format is in vivo, BALB/c-strain female mice. Here is the method:
EMT-6 tumor cells (2×10^5) were inoculated intradermally into the right thighs of BALB/c-strain female mice (8 weeks old). When the tumor sizes reached 5.5 to 8.0 mm after inoculation of the tumor cells, irradiation was locally carried out with 1,000 rad to 2,700 rad of 32 MeV electron beam under no anesthesia, and thereafter 3'-dAdo and 3'-dGuo, each dissolved in physiological saline solution, were administered intraperitoneally in a dose of 100 mg/kg. After the treatments, observation was continued for longer than 90 days, and the cure percentages were determined for comparison with the control group. [formula]
(2) TCD50 =50% Tumor control dose

In data set [4] the test system is adenosinedeaminase. The following applies: cited from earlier work.
Data set [5] deals with Chinese hamster-HA-1 cells. Kind of data set: Plating efficiency of stationary-phase HA-1 cells given enhancer immediately after 1,000 R X-ray (inhibition of PLDR). Format: cell-based. The following applies: for Plating efficiency after 3 hours: control 1.8; for Plating efficiency after 6 hours: control 2.4; for Plating efficiency after 9 hours: control 3.8.
Protocol: (§2) (1) Cells under stationary phase, prepared by planting 2×10^5 cells/well of Chinese hamster-HA-1 cells in a multiwell dish and exchanging cultural medium every day starting on the third day and thereafter were irradiated with 1,000 R of X-rays. Immediately after radiation, 3'-dUrd, and 3'-dGuo in HANKs' balanced salt solution were administered. Then, after elapse of various times, the cells were taken off with trypsin, and a suitable number of cells were transferred into petri dishes for testing colony forming ability and plating efficiencies. The percentages of survival were calculated with corrections by the plating efficiencies with the pharmaceutical agents alone.
Test in data set [6]: as above
Format: cell-based, Chinese hamster. The following applies: chinese hamster, ha-1 cells, no irradiation, control 66, read-out: Plating efficiency, treated only with enhancer (after 9 hours).
Protocol: as §2

Data set [7] concerns EMT-6 tumors. Nature of the data set: Radiosensitizing effect on EMT-6 tumor in mouse, 1500 rad, tumor size and cure. The format is in vivo, BALB/c-strain female mice.
Data set [8] is described as follows: Survival percent of stationary-phase HA-1 cells treated with enhancer 30 minutes before X-ray irradiation. Format: cell-based, Chinese hamster. The following applies: ha-1 cells, no irradiation, control 90, read-out: Plating efficiency of the group not irradiated with X-Rays. Here is the method:
(§1) (2) HA-1 cells under stationary phase prepared similarly as in (1), were irradiated with various doses (200 to 800 R) of X-rays for examination of effects of the enhancer on plating efficiencies of the cells. The treatment with the enhancer was conducted 30 minutes before irradiation. Measurement of plating efficiencies was carried out for the cells immediately after irradiation with X-rays.

In data set [9] the test system is HA-1 cells. The description is as above. Format: cell-based, Chinese hamster. The protocol: as §1
[10] abbreviates: 3'-dUrd 150 μg/ml after 1,000 R.
Setting [11] is: 3'-dUrd 300 μg/ml after 1,000 R.
Setting [12] is: 3'-dUrd 600 μg/ml after 1,000 R.
The mark [13] stands for this setting: 3'-dUrd 0.8 mg/mouse + irradiation 1500 rad, irradiation alone 0%.
Setting [14] is: 3'-dUrd 0.8 mg/mouse + irradiation 1500 rad, irradiation alone 0/10.

Read-outs that look alike come from different tables or passages of the source.

As to `Nc1ncnc2c1ncn2[C@@H]1O[C@H](CO)C[C@H]1O` [3'-dAdo, 3'-deoxyadenosine, reference compound], the Radiosensitizing activity result in data set [1] is listed as “excellent radiosensitizing activities”. The “PLDR-inhibiting ability of 3'-dAdo in combination with 2'-deoxycoformycin” value in data set [1] (combination of 3'-dAdo with 2'-deoxycoformycin) is “can be strengthened and prolonged”. Besides, in data set [2], the LD50 was found to be 280 mg/kg. Further, the TCD50 (50% Tumor control dose) in data set [3] (radiation doses given in rad, control 2400) came to 1600 rad. The TCD50 ratio in [3] (relative to control 1.0) is on record as 0.67. The “Cure number/Number treated” value in [3] (1,000 rad, control 1/23) is reported as 3/18; in data set [3] (1,500 rad, control 8/44), 14/29; in data set [3] (2,100 rad, control 9/24) it was 11/14; in data set [3] (2,700 rad, control 13/28), 10/15. The Cure percentage is 17% in [3] (1,000 rad, control 4%); 48% in [3] (1,500 rad, control 18%); 79% in data set [3] (2,100 rad, control 38%); 67% in [3] (2,700 rad, control 47%). Further, in data set [4] (in bodies), the Inactivation by adenosinedeaminase result was “readily inactivated by adenosinedeaminase in bodies”.

In the case of `O=c1ccn([C@@H]2O[C@H](CO)C[C@H]2O)c(=O)[nH]1` [3'-dUrd, 3'-deoxyuridine], the Radiosensitizing activity result in data set [1] was “excellent radiosensitizing activities”. The “Plating efficiency after 3 hours” value in data set [5] (setting [10]) is given as 1.6%; in [5] (setting [11]), 1.2%; in data set [5] (setting [12]), 0.9%. For the same molecule, the “Plating efficiency after 6 hours” value is given as 2.2% in data set [5] (setting [10]), 1.9% in [5] (setting [11]) and 1.6% in data set [5] (setting [12]). For the same molecule, the “Plating efficiency after 9 hours” value in data set [5] (setting [10]) is reported as 3.5%; in data set [5] (setting [11]), 3.1%; in [5] (setting [12]) it was 2.6%. Also, the “Inhibition of repair (PLDR) after irradiation with X-rays” value in data set [5] (HA-1 cells, Table 1) is recorded as “found to inhibit repair (PLDR) after irradiation with X-rays”. Also, the “Toxicity as examined by plating efficiencies” value in [5] (HA-1 cells, Table 1) was “Substantially no toxicity was observed”. Moreover, the viability at 9 h was 65% in data set [6] (3'-dUrd 150 μg/ml), 60% in data set [6] (3'-dUrd 300 μg/ml) and 58% in data set [6] (3'-dUrd 600 μg/ml). In addition, the “Cure (number of mice)” value in data set [7] (3'-dUrd 0.8 mg/mouse + irradiation 1500 rad, 28 days, irradiation alone 1/10) was 3/7. For the same molecule, in data set [7] (3'-dUrd 0.8 mg/mouse + irradiation 1500 rad, 28 days, irradiation alone 10%), the “Cure (percent)” value worked out at 43%. Besides, the “0.5 to less than 1 of volume ratio excluding cure; Tumor regression rate: slow (percent)” value in data set [7] (setting [13]) is reported as 0%. Further, the “Less than 0.5 of volume ratio excluding cure; Tumor regression rate: rapid (percent)” value in data set [7] (setting [13]) was 14%. Also, the “0.5 to less than 1 of volume ratio excluding cure; Tumor regression rate: slow (number)” value in data set [7] (setting [14]) is 0/7. Further, the “Less than 0.5 of volume ratio excluding cure; Tumor regression rate: rapid (number)” value in data set [7] (setting [14]) is reported as 1/7. The “1.0 to less than 2.0 of volume ratio excluding cure; regrowth: slow (number)” value in data set [7] (3'-dUrd 0.8 mg/mouse + irradiation 1500 rad, irradiation alone 3/10) was 2/7. The “2.0 or more of volume ratio excluding cure; regrowth: rapid (number)” value in [7] (3'-dUrd 0.8 mg/mouse + irradiation 1500 rad, irradiation alone 6/10) was 1/7. The “1.0 to less than 2.0 of volume ratio excluding cure; regrowth: slow (percent)” value in data set [7] (3'-dUrd 0.8 mg/mouse + irradiation 1500 rad, irradiation alone 30%) was 29%. Also, the “2.0 or more of volume ratio excluding cure; regrowth: rapid (percent)” value in [7] (3'-dUrd 0.8 mg/mouse + irradiation 1500 rad, irradiation alone 60%) is 14%. Besides, the “Mean tumor diameter 2 weeks after treatment” value in data set [7] (3'-dUrd 40 mg/kg i.p. 30 min before 1500 rad, n = 7, baseline 6.00 ± 0.41 mm, irradiation alone 7.41) is 6.31 ± 0.97 mm. In addition, the “Mean tumor diameter 3 weeks after treatment” value in data set [7] (3'-dUrd 40 mg/kg i.p. 30 min before 1500 rad, n = 7, baseline 6.00 ± 0.41 mm, irradiation alone 8.29) stood at 4.29 ± 1.73 mm. Also, the “Diameter ratio 2 weeks after treatment” value in data set [7] (3'-dUrd 40 mg/kg i.p. 30 min before 1500 rad, n = 7, irradiation alone 1.09) amounted to 1.06 ± 0.15. Also, the “Diameter ratio 3 weeks after treatment” value in [7] (3'-dUrd 40 mg/kg i.p. 30 min before 1500 rad, n = 7, irradiation alone 1.17) turned out to be 0.66 ± 0.25. Besides, the “Volume ratio 2 weeks after treatment” value in data set [7] (3'-dUrd 40 mg/kg i.p. 30 min before 1500 rad, n = 7, irradiation alone 1.44) turned out to be 1.63 ± 0.44. Further, the “Volume ratio 3 weeks after treatment” value in [7] (3'-dUrd 40 mg/kg i.p. 30 min before 1500 rad, n = 7, irradiation alone 2.06) worked out at 1.21 ± 0.60. The viability in [8] (100 μg/ml) stood at 85%; in data set [8] (200 μg/ml), 87%; in data set [8] (400 μg/ml) it was 85%; in data set [8] (800 μg/ml), 80%. Also, the “Survival percent of the group irradiated with X-Rays” value (shortened to “Survival percent”) was determined as 45% in data set [9] (100 μg/ml, 200R, control 88); 19% in data set [9] (100 μg/ml, 400R, control 27); 5.2% in data set [9] (100 μg/ml, 600R, control 5.9); 1.8% in [9] (100 μg/ml, 800R, control 1.9); 39% in [9] (200 μg/ml, 200R, control 88); 15% in [9] (200 μg/ml, 400R, control 27). Further, the “Survival percent” value in data set [9] (200 μg/ml, 600R, control 5.9) is on record as 4.9%; in data set [9] (200 μg/ml, 800R, control 1.9) it was 1.8%; in data set [9] (400 μg/ml, 200R, control 88), 30%; in data set [9] (400 μg/ml, 400R, control 27) it was 13%; in [9] (400 μg/ml, 600R, control 5.9), 3.8%; in data set [9] (400 μg/ml, 800R, control 1.9), 1.2%. Further, the “Survival percent” value in data set [9] (800 μg/ml, 200R, control 88) is recorded as 29%; in [9] (800 μg/ml, 400R, control 27) it was 13%; in data set [9] (800 μg/ml, 600R, control 5.9), 3.8%; in [9] (800 μg/ml, 800R, control 1.9) it was 1.0%. For the same molecule, the “Sensitizing effect under X-ray irradiation” value in [9] (HA-1 cells, Table 2) is reported as “found to exhibit sensitizing effect especially with low dosage of irradiation with X-rays”.

Regarding `OC[C@H]1O[C@@H](n2cnc3c2N=CNC[C@H]3O)C[C@@H]1O` [2'-deoxycoformycin], in data set [4], the Inhibition of adenosinedeaminase entry is listed as “inhibitor against adenosinedeaminase”.

A word on the LD50: it is the dose expected to kill half of the subjects tested. Read a low LD50 as greater toxicity.
